In this assay the test system is Mäuse. Description: Step-down platform passive avoidance test, direct measurement of improvement of memory performance. To be noted: male mice, 1 mg/kg i.p. within 10 seconds after foot shock, time on platform 24 hours later versus solvent controls. The format is in vivo. The source says: Zur unmittelbaren […]: • Die Testvorrichtung besteht aus […] normal beleuchteten Box (50 […]äbe (6 mm Durchmesser) in einem Abstand von jeweils 13 mm angeordnet sind. In […] Gitterrostes ist eine hölzerne Plattform (10 mm Höhe, 67 mm Durchmesser) angebracht, welche von […] hoch, 68 mm […]. Zur Durchführung des Trainings werden Gruppen von jeweils 30 männlichen Mäusen (20 - 25 g) verwendet, indem jeweils ein Tier auf die von […] die […] und die Zeitdauer gemessen wird, welche das Tier zum Hinabsteigen und Berühren des Gitterrostes mit allen 4 Pfoten benö[…] von 10 Sekunden nach Verabreichung des Fussschocks werden die Testsubstanzen in Dosen von 0,1 mg/kg, 1 mg/kg und 10 mg/kg (für jede Dosis werden 30 Mäuse verwendet) je nach Löslichkeit als Lösung in physiologischer NaCl-Lösung oder einer 0,5%-igen Lösung von Methylcellulose in Wasser intraperitoneal verabreicht.

Here are results for two compounds from patent EP0089926A2, “Pharmaceutical preparations of tetracycles containing nitrogen, and compounds of this type” (CIBA-GEIGY AG, priority 1982, dated 1983).

SMILES strings stand for the structures.

Take `CCC1(CCC(=O)OC)CCN2CCc3c([nH]c4ccccc34)C21` (racemic) [cis-1-Aethyl-2,3,5,6,11,11b-hexahydro-1H-indolizino[8,7-b]indol-1-propionsäuremethylester]: the “Verbesserung der Gedächtnisleistung” value was “eine Verbesserung der Gedächtnisleistung”. The value for `CCC1(CC(O)C(=O)OC)CCN2CCc3c([nH]c4ccccc34)C21` (racemic) [erythro-cis-a-Hydroxy-1-äthyl-2,3,5,6,11,11b-hexahydro-1H-indolizino[8,7-b]indol-1-propionsäuremethylester] was “eine Verbesserung der Gedächtnisleistung”.
